According to paper doi:10.1101/2021.01.22.427858v1 (biorxiv, 2021):

Target: T1, Human Serum Albumin (HSA) (Homo sapiens, UniProt P02768)
Experiment: not given
Conditions: binder

T1 sequence (P02768 25-609): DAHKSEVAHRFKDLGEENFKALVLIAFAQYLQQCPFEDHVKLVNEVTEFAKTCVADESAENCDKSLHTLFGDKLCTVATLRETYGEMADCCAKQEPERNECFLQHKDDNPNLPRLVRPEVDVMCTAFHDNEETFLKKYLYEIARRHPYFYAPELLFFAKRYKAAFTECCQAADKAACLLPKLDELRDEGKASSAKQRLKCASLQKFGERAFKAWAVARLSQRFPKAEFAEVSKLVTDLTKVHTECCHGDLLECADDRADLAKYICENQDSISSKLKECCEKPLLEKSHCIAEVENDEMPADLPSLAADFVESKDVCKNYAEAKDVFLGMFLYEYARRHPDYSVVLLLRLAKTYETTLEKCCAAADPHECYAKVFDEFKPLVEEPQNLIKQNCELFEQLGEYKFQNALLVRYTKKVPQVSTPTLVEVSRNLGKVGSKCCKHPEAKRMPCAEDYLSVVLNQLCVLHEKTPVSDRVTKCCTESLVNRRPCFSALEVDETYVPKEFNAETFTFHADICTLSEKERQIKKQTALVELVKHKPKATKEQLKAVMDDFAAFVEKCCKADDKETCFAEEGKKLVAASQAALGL

Compared with `Cc1c(C2(c3cc(Br)c(O)c(Br)c3C)OS(=O)(=O)c3ccccc32)cc(Br)c(O)c1Br` [Bromocresol Green], `COc1ccc2cc([C@H](C)C(=O)O)ccc2c1` [Naproxen] is lower in “dTm (C)” value: 6.29 °C for the first, 5.52 °C for the second.

`C[C@H]1O[C@@H](O[C@H]2[C@@H](O)C[C@H](O[C@H]3[C@@H](O)C[C@H](O[C@H]4CC[C@@]5(C)[C@H](CC[C@@H]6[C@@H]5CC[C@]5(C)[C@@H](C7=CC(=O)OC7)CC[C@]65O)C4)O[C@@H]3C)O[C@@H]2C)C[C@H](O)[C@@H]1O` [Digitoxin] was tested, and the “dTm (C)” value was 3.92 °C.

Same assay, conditions: ligand concentration not given; binder

First: C=CC1=C(C)/C(=C/c2[nH]c(Cc3[nH]c(/C=C4\NC(=O)C(C)=C4C=C)c(C)c3CCC(=O)O)c(CCC(=O)O)c2C)NC1=O [Bilirubin]
Second: CCCCCCCCCC(=O)O [Decanoic Acid]
The “dTm (C)” value of the first is lower: 0.30 °C for the first, 24.56 °C for the second.

Compared with `CC(NC(C)(C)C)C(=O)c1cccc(Cl)c1` (stereo not drawn) [Buproprion], `CCN(CC)CCCC(C)Nc1ccnc2cc(Cl)ccc12` (stereo not drawn) [Chloroquine] is higher in “dTm (C)” value: 0.62 °C for the first, 1.43 °C for the second.

Going from `Cn1c(=O)c2c(ncn2C)n(C)c1=O` [Caffeine] to `COCCc1ccc(OCC(O)CNC(C)C)cc1` (stereo not drawn) [Metoprolol], the “dTm (C)” value falls from 0.47 °C to -0.40 °C.

First: C[C@H](CS)C(=O)N1CCC[C@H]1C(=O)O [Captopril]
Second: C[C@]12CC[C@@H]3c4ccc(O)cc4CC[C@H]3[C@@H]1CC[C@@H]2O [β-Estradiol]
The “dTm (C)” value of the first is lower: -0.41 °C for the first, 0.92 °C for the second.

Going from `O=C1OC2(c3ccc(O)cc3Oc3cc(O)ccc32)c2ccccc21` [Fluorescein] to `CCCCNc1ccc(C(=O)OCCN(C)C)cc1` [Tetracaine], the “dTm (C)” value falls from 7.95 °C to 3.16 °C.

In the case of `CN(C)C(=N)NC(=N)N` [Metformin], the “dTm (C)” value is reported as -0.31 °C.

Target: T1, Human Serum Albumin (HSA)
Experiment: differential scanning calorimetry
Assay type: binding
Conditions: not given

In the case of `CN(C)C(=N)NC(=N)N` [Metformin], the KD1 is reported as 2.01 ± 0.43 10^-6 M.

Target: T1, Human Serum Albumin (HSA)
Experiment: differential scanning calorimetry, bi-dose-response fit
Conditions: not given

`C[CH2][Hg][S]c1ccccc1C(=O)O` [Thimerosal] was tested, and the KD1 was 3.13 ± 0.43 10^-6 M.

Target: T1, Human Serum Albumin (HSA)
Experiment: biochemical
Assay type: binding
Conditions: not given

`Cc1c(C2(c3cc(Br)c(O)c(Br)c3C)OS(=O)(=O)c3ccccc32)cc(Br)c(O)c1Br` [Bromocresol Green] and `O=C1OC2(c3ccc(O)cc3Oc3cc(O)ccc32)c2ccccc21` [Fluorescein] are the same in Kd: 3.31 ± 1.7 µM for the first, 3.31 ± 1.7 µM for the second.
